Results: the supplement of paper PMC4862054
Each block holds one compound with its values, some of them ahead of it.

What was measured:
Settings in all cases: 72 h
[1] = system: MFM-223
In short: (§1)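 Breast cancer cell lines in 20 µl suspension were seeded onto 384-well plates that already held compound dissolved in 5 µl medium and were incubated for 72 h. Viability was measured by adding 2.5 µl CellTiter-Blue for 2 h at 37 °C and reading fluorescence at 560/590 nm. Each plate was normalised to vehicle and a positive kill control and checked by Z'-factor. EC50 was taken from a fitted percent-inhibition dose-response curve, censored at the highest concentration, and rows with a drug sensitivity score of zero were removed.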

[2] = system: BT-549
In short: as §1

[3] = system: BT-474
In short: as §1

[4] = system: MDA-MB-468
In short: as §1

[5] = system: SK-BR-3
In short: as §1

[6] = system: Hs578T
In short: as §1

[7] = system: HCC1143
In short: as §1

[8] = system: HCC1937
In short: as §1

[9] = system: HCC1599
In short: as §1

[10] = system: MDA-MB-231
In short: as §1

[11] = system: CAL-120
In short: as §1

[12] = system: MDA-MB-436
In short: as §1

[13] = system: MFM-223; remark: listed apart in the source
In short: (§2)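 Per-plate normalisation used 0.1 % DMSO and a positive kill control. Breast cancer cell lines (20 µl suspension) were seeded into 384-well plates containing compound at 5 concentrations in 10-fold steps across a compound-specific 10,000-fold range, incubated for 72 h, and read first for CellTox Green fluorescence (485/520 nm), then for CellTiter-Glo luminescence. EC50 was fitted from the dose-response curves and censored at the top concentration.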

[14] = system: BT-549; remark: listed apart in the source
In short: as §2

[15] = system: BT-474; remark: listed apart in the source
In short: as §2

[16] = system: MDA-MB-468; remark: listed apart in the source
In short: as §2

[17] = system: CAL-85-1
In short: as §2

[18] = system: MDA-MB-453
In short: as §2

[19] = system: SK-BR-3; remark: listed apart in the source
In short: as §2

[20] = system: DU-4475
In short: as §2

[21] = system: HDQ-P1
In short: as §2

[22] = system: Hs578T; remark: listed apart in the source
In short: as §2

[23] = system: CAL-51
In short: as §2

[24] = system: HCC1143; remark: listed apart in the source
In short: as §2

[25] = system: HCC1937; remark: listed apart in the source
In short: as §2

[26] = system: HCC1599; remark: listed apart in the source
In short: as §2

[27] = system: MCF-10A
In short: as §2

[28] = system: MDA-MB-231; remark: listed apart in the source
In short: as §2

[29] = system: CAL-120; remark: listed apart in the source
In short: as §2

[30] = system: MDA-MB-436; remark: listed apart in the source
In short: as §2

[31] = system: CAL-148
In short: as §2

[32] = system: MFM-223; remark: listed apart in the source
Protocol: (§3)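 Drug sensitivity and resistance testing (DSRT) of breast cancer cell lines in 384-well plates, 5 concentrations in 10-fold dilutions over a compound-specific 10,000-fold range. After 72 h, cytotoxicity was read by CellTox Green fluorescence and viability by CellTiter-Glo luminescence (multiplexed), normalised to DMSO and benzethonium chloride controls. EC50 is the inflection point of the fitted dose-response curve (bottom asymptote free, so it can be relative for partial curves) and is censored at the highest tested concentration. Rows with DSS 0 (no meaningful response) were excluded.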

[33] = system: BT-474; remark: listed apart in the source
Protocol: as §3

[34] = system: MDA-MB-468; remark: listed apart in the source
Protocol: as §3

[35] = system: CAL-85-1; remark: listed apart in the source
Protocol: as §3

[36] = system: MDA-MB-453; remark: listed apart in the source
Protocol: as §3

[37] = system: Hs578T; remark: listed apart in the source
Protocol: as §3

[38] = system: CAL-51; remark: listed apart in the source
Protocol: as §3

[39] = system: MCF-10A; remark: listed apart in the source
Protocol: as §3

[40] = system: MDA-MB-231; remark: listed apart in the source
Protocol: as §3

[41] = system: CAL-120; remark: listed apart in the source
Protocol: as §3

[42] = system: MDA-MB-436; remark: listed apart in the source
Protocol: as §3

[43] = system: CAL-148; remark: listed apart in the source
Protocol: as §3

[44] = system: BT-549; remark: listed apart in the source
Protocol: as §3

[45] = system: DU-4475; remark: listed apart in the source
Protocol: as §3

[46] = system: HDQ-P1; remark: listed apart in the source
Protocol: as §3

[47] = system: HCC1143; remark: listed apart in the source
Protocol: as §3

[48] = system: HCC1937; remark: listed apart in the source
Protocol: as §3

- EC50, CellTiter-Blue viability [2]: 1.62 µM
- EC50, CellTiter-Blue viability [3]: 0.474 µM
- EC50, CellTiter-Blue viability [4]: 0.2 µM
- EC50, CellTiter-Blue viability [5]: 0.101 µM
- EC50, CellTiter-Blue viability [7]: 0.361 µM
- EC50, CellTiter-Blue viability [8]: 0.77 µM
- EC50, CellTiter-Blue viability [9]: 0.295 µM
- EC50, CellTiter-Blue viability [10]: 0.835 µM
- EC50, CellTiter-Blue viability [12]: 0.969 µM
- EC50, CellTiter-Glo [14]: 1.17 µM
- EC50, CellTiter-Glo [15]: 1.97 µM
- EC50, CellTiter-Glo [16]: 0.202 µM
- EC50, CellTiter-Glo [18]: 0.123 µM
- EC50, CellTiter-Glo [19]: 0.507 µM
- EC50, CellTiter-Glo [24]: 0.783 µM
- EC50, CellTiter-Glo [25]: 1.47 µM
- EC50, CellTiter-Glo [26]: 0.911 µM
- EC50, CellTiter-Glo [28]: 0.689 µM
- EC50, CellTiter-Glo [30]: 1.64 µM
SMILES: C#Cc1cccc(Nc2ncnc3cc(OC)c(OCCCCCCC(=O)NO)cc23)c1 [CUDC-101]
- EC50, CellTiter-Blue viability [1]: 0.145 µM
- EC50, CellTiter-Blue viability [6]: 0.394 µM
- EC50, CellTiter-Blue viability [11]: 0.294 µM
- EC50, CellTiter-Glo [13]: 0.19 µM
- EC50, CellTiter-Glo [17]: 0.212 µM
- EC50, CellTiter-Glo [20]: 1.5 µM
- EC50, CellTiter-Glo [21]: 3.36 µM
- EC50, CellTiter-Glo [22]: 1.92 µM
- EC50, CellTiter-Glo [23]: 0.847 µM
- EC50, CellTiter-Glo [27]: 0.242 µM
- EC50, CellTiter-Glo [29]: 3.23 µM
- EC50, CellTiter-Glo [31]: 1.28 µM
- EC50, CellTox Green [32]: 1.6 µM
- EC50, CellTox Green [33]: 2.72 µM
- EC50, CellTox Green [34]: 0.775 µM
- EC50, CellTox Green [35]: 0.208 µM
- EC50, CellTox Green [36]: 0.271 µM
- EC50, CellTox Green [37]: 6.67 µM
- EC50, CellTox Green [38]: 2.46 µM
- EC50, CellTox Green [39]: 8.03 µM
- EC50, CellTox Green [40]: 0.403 µM
- EC50, CellTox Green [41]: 5.1 µM
- EC50, CellTox Green [42]: 0.792 µM
- EC50, CellTox Green [43]: 1.7 µM

- EC50, CellTiter-Blue viability [2]: 0.00783 µM
- EC50, CellTiter-Blue viability [3]: 0.00719 µM
- EC50, CellTiter-Blue viability [4]: 0.00295 µM
- EC50, CellTiter-Blue viability [5]: 0.00277 µM
- EC50, CellTiter-Blue viability [7]: 0.00646 µM
- EC50, CellTiter-Blue viability [8]: 0.00293 µM
- EC50, CellTiter-Blue viability [9]: 0.0795 µM
- EC50, CellTiter-Blue viability [10]: 0.00389 µM
- EC50, CellTiter-Blue viability [12]: 0.0349 µM
- EC50, CellTiter-Glo [14]: 0.00396 µM
- EC50, CellTiter-Glo [15]: 0.00894 µM
- EC50, CellTiter-Glo [16]: 0.00293 µM
- EC50, CellTiter-Glo [18]: 0.0229 µM
- EC50, CellTiter-Glo [19]: 0.00028 µM
- EC50, CellTiter-Glo [24]: 0.019 µM
- EC50, CellTiter-Glo [25]: 0.0712 µM
- EC50, CellTiter-Glo [26]: 0.097 µM
- EC50, CellTiter-Glo [28]: 0.0139 µM
- EC50, CellTiter-Glo [30]: 0.0061 µM
SMILES: CC(C)C[C@H](NC(=O)[C@H](Cc1ccccc1)NC(=O)c1cnccn1)B(O)O [Bortezomib]
- EC50, CellTiter-Blue viability [1]: 0.00667 µM
- EC50, CellTiter-Blue viability [6]: 0.0222 µM
- EC50, CellTiter-Blue viability [11]: 0.00542 µM
- EC50, CellTiter-Glo [13]: 0.0051 µM
- EC50, CellTiter-Glo [17]: 0.00447 µM
- EC50, CellTiter-Glo [20]: 0.0271 µM
- EC50, CellTiter-Glo [21]: 0.0124 µM
- EC50, CellTiter-Glo [22]: 0.0131 µM
- EC50, CellTiter-Glo [23]: 0.03 µM
- EC50, CellTiter-Glo [27]: 0.135 µM
- EC50, CellTiter-Glo [29]: 0.0161 µM
- EC50, CellTiter-Glo [31]: 0.0601 µM
- EC50, CellTox Green [32]: 0.013 µM
- EC50, CellTox Green [44]: 0.0493 µM
- EC50, CellTox Green [33]: 0.0328 µM
- EC50, CellTox Green [34]: 0.00194 µM
- EC50, CellTox Green [35]: 0.00502 µM
- EC50, CellTox Green [36]: 0.156 µM
- EC50, CellTox Green [45]: 0.229 µM
- EC50, CellTox Green [46]: 0.015 µM
- EC50, CellTox Green [37]: 0.0117 µM
- EC50, CellTox Green [38]: 0.0275 µM
- EC50, CellTox Green [47]: 0.165 µM
- EC50, CellTox Green [48]: 0.0113 µM
- EC50, CellTox Green [39]: 0.21 µM
- EC50, CellTox Green [40]: 0.0139 µM
- EC50, CellTox Green [41]: 0.0438 µM
- EC50, CellTox Green [42]: 0.0324 µM
- EC50, CellTox Green [43]: 0.0172 µM
